Assay results published in patent publication US20220213092A1, “BICYCLIC PYRAZOLE BRUTON'S TYROSINE KINASE INHIBITORS” (AbbVie Inc., priority 2020, published 2022).

How the values were obtained:
[1] = target: T1, Phosphorylation of Y223 of BTK (Homo sapiens, UniProt Q06187); assay: Whole blood compound screening, phosphorylation of Y223 site of BTK (MSD assay); assay type: cell-based; settings: healthy human whole blood, 2 hours at 37° C., 3 separate donors; read-out: WB BTK-pY223 EC50
T1 construct: host or cells: healthy human whole blood, 3 donors
T1 sequence (Q06187 whole entry): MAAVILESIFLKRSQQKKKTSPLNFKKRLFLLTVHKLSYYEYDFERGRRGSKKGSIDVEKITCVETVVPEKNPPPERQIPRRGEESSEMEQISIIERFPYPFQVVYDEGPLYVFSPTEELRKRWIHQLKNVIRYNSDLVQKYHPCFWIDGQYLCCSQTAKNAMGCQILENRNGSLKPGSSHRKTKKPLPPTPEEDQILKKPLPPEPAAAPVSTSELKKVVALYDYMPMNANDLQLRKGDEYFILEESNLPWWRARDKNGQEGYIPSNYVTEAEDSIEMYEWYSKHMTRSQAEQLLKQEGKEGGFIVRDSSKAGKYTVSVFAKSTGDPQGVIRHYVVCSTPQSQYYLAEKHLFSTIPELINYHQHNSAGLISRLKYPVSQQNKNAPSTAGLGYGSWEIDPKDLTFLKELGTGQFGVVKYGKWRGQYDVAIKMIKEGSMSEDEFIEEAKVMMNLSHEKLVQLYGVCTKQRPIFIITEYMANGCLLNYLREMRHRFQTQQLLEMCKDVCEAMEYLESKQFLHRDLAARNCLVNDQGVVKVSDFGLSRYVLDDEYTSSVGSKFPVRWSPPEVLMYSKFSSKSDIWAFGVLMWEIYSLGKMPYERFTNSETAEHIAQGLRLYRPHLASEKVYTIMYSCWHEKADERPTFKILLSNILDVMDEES
How it was run: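 Heparinized human whole blood from 3 donors treated 2 h at 37 °C with compounds (8 points, top 10 μM, 1:4 dilution, 0.2% DMSO), then lysed. BTK pY223 quantified by MSD sandwich immunoassay (anti-BTK capture, anti-pY223 detection); EC50 from concentration response.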

BLK = BLK (Homo sapiens, UniProt P51451); assay: Other kinase MSA: BLK; assay type: biochemical
BLK, sequence (P51451 whole entry, species assumed): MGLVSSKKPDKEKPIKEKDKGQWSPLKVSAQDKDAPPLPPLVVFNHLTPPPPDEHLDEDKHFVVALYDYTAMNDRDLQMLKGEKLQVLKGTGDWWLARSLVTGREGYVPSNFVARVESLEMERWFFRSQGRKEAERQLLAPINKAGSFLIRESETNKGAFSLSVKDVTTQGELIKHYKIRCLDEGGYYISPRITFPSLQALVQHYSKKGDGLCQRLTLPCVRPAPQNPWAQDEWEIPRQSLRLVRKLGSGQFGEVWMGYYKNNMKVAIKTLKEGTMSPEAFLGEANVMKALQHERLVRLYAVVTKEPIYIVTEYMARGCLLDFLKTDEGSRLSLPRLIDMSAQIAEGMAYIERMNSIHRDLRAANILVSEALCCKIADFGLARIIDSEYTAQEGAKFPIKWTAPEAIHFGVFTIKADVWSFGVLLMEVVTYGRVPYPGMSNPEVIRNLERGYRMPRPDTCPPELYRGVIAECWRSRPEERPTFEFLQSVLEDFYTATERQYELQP
Protocol: (§1) Kinase activity, unless otherwise indicated, was measured in vitro using an electrophoretic mobility shift assay (MSA). The phosphorylation of a peptide substrate by BTK and other kinases was measured. The kinase reactions were assembled in a total volume of 25 μL per well in 384 well plates. The following was added to each well: compound buffer (or control); enzyme buffer; and substrate buffer, as further described below.
(§2) Enzyme and compound/inhibitor were optionally pre-incubated. To each well was added: 8 μL of 2.5×ATP and substrate in 1× Master Buffer (1× Master Buffer as described above). The plate was incubated at room temperature for 3 hours. […] OG488 was Oregon Green dye, which was conjugated to the peptide substrate. […] The kinase activity for the kinases in Table 3 were measured at 3 hours incubation time, except that in the case of MAP2K1 and MAP2K2 assay, pre-activation of ERK was done for 30 min with 6 μM of ATP, and then the detection of activated ERK in the presence of compounds was done after 60 minutes of incubation.
(§3) The terminated reactions were analyzed using a 12 channel LABCHIP® 3000 microfluidic detection instrument (available from Caliper Life Sciences, Waltham, Mass.). […] Change in the relative fluorescence intensity of the substrate and product peaks was the parameter measured, reflecting enzyme activity. […]

BMX = target: T2, BMX (Homo sapiens, UniProt P51813); assay: Other kinase MSA: BMX; assay type: biochemical
T2 sequence (P51813 1-675): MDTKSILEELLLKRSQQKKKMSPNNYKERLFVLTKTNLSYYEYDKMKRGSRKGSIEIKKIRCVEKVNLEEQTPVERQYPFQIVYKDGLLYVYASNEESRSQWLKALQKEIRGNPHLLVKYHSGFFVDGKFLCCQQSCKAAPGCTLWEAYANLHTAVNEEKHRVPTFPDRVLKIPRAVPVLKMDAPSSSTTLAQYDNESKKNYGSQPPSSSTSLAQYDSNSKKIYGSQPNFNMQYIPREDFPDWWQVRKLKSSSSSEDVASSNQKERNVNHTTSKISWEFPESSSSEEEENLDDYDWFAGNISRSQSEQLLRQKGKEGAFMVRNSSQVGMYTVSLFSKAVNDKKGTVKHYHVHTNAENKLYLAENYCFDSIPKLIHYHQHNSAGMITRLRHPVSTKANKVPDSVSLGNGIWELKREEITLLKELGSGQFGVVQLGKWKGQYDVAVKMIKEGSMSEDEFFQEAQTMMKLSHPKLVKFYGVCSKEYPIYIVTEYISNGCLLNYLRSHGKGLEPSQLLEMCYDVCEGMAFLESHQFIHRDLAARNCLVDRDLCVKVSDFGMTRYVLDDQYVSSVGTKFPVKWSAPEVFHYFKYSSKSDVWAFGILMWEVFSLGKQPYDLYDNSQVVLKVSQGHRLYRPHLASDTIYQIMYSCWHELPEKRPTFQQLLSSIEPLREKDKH
Protocol: as §1, §2, §3

ERBB4 = ERBB4 (Homo sapiens, UniProt Q15303); assay: biochemical
ERBB4, sequence (Q15303 26-1308, species assumed): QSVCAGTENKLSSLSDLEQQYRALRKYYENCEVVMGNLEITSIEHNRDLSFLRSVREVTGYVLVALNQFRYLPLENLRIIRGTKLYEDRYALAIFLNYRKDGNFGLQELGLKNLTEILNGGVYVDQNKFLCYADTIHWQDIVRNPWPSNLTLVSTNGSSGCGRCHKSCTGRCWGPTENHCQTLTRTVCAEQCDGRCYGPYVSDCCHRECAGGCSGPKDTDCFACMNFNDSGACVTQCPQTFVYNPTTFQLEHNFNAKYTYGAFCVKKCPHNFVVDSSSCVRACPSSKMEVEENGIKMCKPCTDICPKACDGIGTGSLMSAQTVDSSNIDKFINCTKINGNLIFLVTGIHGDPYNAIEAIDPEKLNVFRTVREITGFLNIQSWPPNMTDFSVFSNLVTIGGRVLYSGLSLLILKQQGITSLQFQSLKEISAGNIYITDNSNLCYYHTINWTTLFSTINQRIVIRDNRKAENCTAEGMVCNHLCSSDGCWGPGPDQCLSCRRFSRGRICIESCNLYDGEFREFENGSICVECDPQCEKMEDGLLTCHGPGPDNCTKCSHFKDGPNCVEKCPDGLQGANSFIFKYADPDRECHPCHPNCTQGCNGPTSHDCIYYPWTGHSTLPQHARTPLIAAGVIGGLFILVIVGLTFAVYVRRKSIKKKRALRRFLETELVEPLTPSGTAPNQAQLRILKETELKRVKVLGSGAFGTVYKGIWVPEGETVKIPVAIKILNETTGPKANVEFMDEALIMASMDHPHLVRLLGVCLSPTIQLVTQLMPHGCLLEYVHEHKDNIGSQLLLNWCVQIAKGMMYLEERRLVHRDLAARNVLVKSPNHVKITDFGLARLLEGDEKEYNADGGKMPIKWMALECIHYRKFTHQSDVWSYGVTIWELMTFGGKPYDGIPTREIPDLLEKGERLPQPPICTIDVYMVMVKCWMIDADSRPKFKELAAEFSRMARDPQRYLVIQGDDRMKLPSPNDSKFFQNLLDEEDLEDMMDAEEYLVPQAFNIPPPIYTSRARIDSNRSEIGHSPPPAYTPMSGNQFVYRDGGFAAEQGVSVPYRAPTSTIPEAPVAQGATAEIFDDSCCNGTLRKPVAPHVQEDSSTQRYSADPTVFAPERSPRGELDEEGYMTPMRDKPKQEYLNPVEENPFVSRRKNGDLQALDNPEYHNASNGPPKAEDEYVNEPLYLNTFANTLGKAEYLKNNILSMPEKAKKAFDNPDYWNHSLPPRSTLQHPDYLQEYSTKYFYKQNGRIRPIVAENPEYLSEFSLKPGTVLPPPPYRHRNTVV
Protocol: as §1, §2, §3

Q: With `C=CC(=O)N1CCN([C@@H]2CCNc3c2nn(-c2ccc(Oc4ccccc4)cc2)c3C(N)=O)CC1` [Example 6, (7R)-2-(4-phenoxyphenyl)-7-[4-(prop-2-enoyl)piperazin-1-yl]-4,5,6,7-tetrahydro-2H-pyrazolo[4,3-b]pyridine-3-carboxamide] as the compound, how does the EC50 [1] read?
A: 24.1 nM

Q: What about the IC50 (BLK) of the same compound?
A: 137 nM

Q: What about the IC50 (BMX) of the same compound?
A: 15.2 nM

Q: What about the IC50 (ERBB4) of the same compound?
A: 757 nM
